From publication PMC7946642, “Vacuolin-1 inhibits endosomal trafficking and metastasis via CapZβ” (Oncogene, 2021)

Molecular target: T1, CapZβ (Homo sapiens, UniProt P47756)
T1 construct: gene CAPZB; recombinant CapZβ
Assay: isothermal titration calorimetry
Assay type: binding
Conditions: biotinylated vacuolin-1 analogue; labelled compound

T1 sequence (P47756 2-272): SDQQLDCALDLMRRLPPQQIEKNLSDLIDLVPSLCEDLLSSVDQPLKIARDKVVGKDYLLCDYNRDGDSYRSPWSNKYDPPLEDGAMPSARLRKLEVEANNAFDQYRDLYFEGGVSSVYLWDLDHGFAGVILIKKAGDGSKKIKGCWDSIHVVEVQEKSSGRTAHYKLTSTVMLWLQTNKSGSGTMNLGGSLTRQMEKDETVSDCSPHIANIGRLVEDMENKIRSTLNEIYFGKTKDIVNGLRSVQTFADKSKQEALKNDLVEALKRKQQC

Kd: ~3.1 µM
Substance: biotin-V1
